In patent publication US10899815B2, “Compositions and methods of using islet neogenesis peptides and analogs thereof” (SHENZHEN HIGHTIDE BIOPHARMACEUTICAL, LTD., priority 2013, dated 2021):

Columns and labels:
[1] = Peptide stability in mouse plasma; type: in vitro ADME; conditions: 100 μg/mL, 37° C., LC-MS/MS, FIG. 3 and FIG. 5
Protocol: (§1) The stability of peptides was also tested in mouse and human plasma. Briefly, a certain amount of peptides and eucatropine powder (positive control) was accurately weighed. Test compounds were dissolved in 50% methanol-water solution and diluted to 20 mg/mL, and eucatropine was dissolved in dimethylsulfoxide (DMSO) and diluted to 10 mM, as a stock solution. Eucatropine stock solution was diluted to 0.2 mM with DMSO as a working solution. A stop reagent was prepared containing 200 ng/mL midazolam and tolbutamide in acetonitrile. A volume of 300 μL of stop solution was added to each well of a 96-well deep-well plate placed on ice beforehand.
(§2) For the stability studies, peptides and eucatropine were spiked into plasma respectively, mixed well, and then 100 μL of each mixture solution was transferred into the pre-cooled stop reagent as 0 time point sample. The remaining mixtures were incubated in a 37° C. water bath with shaking at 100 rpm (n=2). The final incubation concentration was 1 μM for eucatropine and 100 μg/mL for all test compounds.
At desired time points, 100 μl, of incubation mixture was transferred to the stop reagent to precipitate proteins. Samples were vortexed and centrifuged at RCF 5000-g for 10 minutes, and supernatant was transferred to a test plate. The samples were analyzed by LC-MS/MS.
Slope was calculated by plotting the natural logarithm of the percentage or remaining amount of test compounds and time, and T12 was calculated in accordance with the following formula.
For stability in mouse plasma, the incubation time was 0, 5, 15, 30 and 60 min for Peptide 1 and eucatropine, 0, 15, 30, 60, 120, 240 and 480 min for Peptide 12, Peptide 16 and Peptide 29.
In another stability study in mouse plasma, the incubation time was 0, 30, 60 and 120 min for Peptide 2 and eucatropine; 0, 30, 60, 120, 240 and 960 min for Peptide 52 and Peptide 54.

[2] = Peptide stability in human plasma; type: in vitro ADME; conditions: 100 μg/mL, 37° C., 0-120 min, FIG. 4
Protocol: as §1, §2
At desired time points, 100 μl, of incubation mixture was transferred to the stop reagent to precipitate proteins. […] The samples were analyzed by LC-MS/MS.
Slope was calculated by plotting the natural logarithm of the percentage or remaining amount of test compounds and time, and T12 was calculated in accordance with the following formula. […]

pancreatic islets = test: Glucose-stimulated insulin secretion (GSIS) of isolated islets; type: cell-based, Sprague-Dawley (SD) rats; conditions: rat islets, 12.0 mM glucose, 10 μg/mL peptide (GLP-1 100 nM), 60 min, FIG. 8
Protocol: The pancreases were procured from male adult Sprague-Dawley (SD) rats. After 7 days acclimation, the animals were sacrificed by cervical dislocation and the entire pancreas was removed and digested with collagenase to isolate islets. After digestion, islets were maintained at 37° C. in RPMI 1640 (Carlsbad, Calif., USA) pH 7.4, containing 10% (v/v) fetal calf serum, 1% penicillin/streptomycin, and 10 mM glucose in a humid atmosphere (5% CO2/95% O2), without the addition of any compound (control), or with the addition of 100 nM glucagon like peptide-1 (GLP-1); or 10 μg/mL Peptide 1, Peptide 12, or Peptide 16, as summarized in Table 4 below. Cultured islets were rinsed in Krebs-Ringer bicarbonate buffer (KRB), pH 7.4, previously gassed with a mixture CO2/O2 (5/95%), and pre-incubated in 1.0 ml KRB containing 0.5% (w/v) BSA and 1.5 mM glucose at 37° C. for 45 min. After this period, groups of 5 islets were incubated in 0.6 ml KRB with the addition of 1.5 or 12.0 mM glucose, with or without the addition of peptides for 60 min. At the end of the incubation period, aliquots of the medium were collected for insulin quantitation.

Pharmacokinetics in rat = type: in vivo, Sprague-Dawley (SD) rats; conditions: mouse and rat, 25 mg/kg
Protocol: After 7 days acclimation, male Sprague-Dawley (SD) rats weighing 210-250 g, or male C57BL/6 mice, weighing 19-24 g, in good health were used in the study. Peptide 1, Peptide 12 and Peptide 16 were dissolved in sterile normal saline and then they were injected via subcutaneous (sc) bolus or intravenous (iv) bolus at the dose level of 25 mg/kg. Three animals in each group were used for blood collection at the time point of 5 min, 15 min, 30 min, 1 h, 2 h, 4 h, 6 h, 8 h and 24 h post-dose. Blood samples (approximately 400 μL) were collected and placed into tubes containing EDTA-K2 and centrifuged at 8000 rpm for 6 minutes at 4° C. to separate plasma front the samples. The resulting plasma was stored frozen at −80° C. until being analyzed. Plasma concentrations of peptides were determined using tandem mass spectrometry (LC-MS/MS) analysis. A non-compartmental module of WinNonlin® Professional 5.2 (Pharsight; St. Louis, Mo.), was used to calculate PK parameters. The abbreviation AUC(0-t) represents area under the curve front the time of dosing to the time of the last observation, the AUC(0-∞) represents area under the curve from the time of dosing to infinity, and the Cmax represents maximum concentration detected.

PK properties (AUC and Cmax) compared to INGAP-PP (Pharmacokinetics in rat): marked improved PK properties
Substance: Ac-IGLHDPSHGTLPNGS-OH [Peptide 16, Ac-IGLHDPSHGTLPNGS-OH]
stability in mouse plasma [1]: good stability in mouse plasma and were more stable than INGAP-PP
stability in human plasma [2]: good stability in human plasma and were significantly more stable than INGAP-PP
glucose-stimulated insulin secretion versus islets without peptides (pancreatic islets): released significantly more insulin
